Measurements taken from paper PMC8201173, “Inhibition of Carbonic Anhydrase IX Promotes Apoptosis through Intracellular pH Level Alterations in Cervical Cancer Cells” (International Journal of Molecular Sciences, 2021).

Tested on: HeLa cells
Test: Intracellular pH (BCFL-AM fluorometric assay)
Format: cell-based
Conditions: BCFL-AM indicator, 0–200 μM
Procedure: Intracellular PH was measured according to the protocol of fluorometric Intracellular pH Assay Kit (Sigma-Aldrich, MAK-150, Germany). Fluorescent BCFL-AM indicator passed through cell membrane to measure intracellular pH fluctuations in the fluorometric intracellular pH kit. BCFL-AM was utilized to measure intracellular pH of the cells. The cells were planted in black plates and incubated for 24 h. The medium was replaced with BCFL-AM Reagent, which had been prepared in 100 µL of HBS solution (Hank’s buffer with 20 mM HEPES, 5 mM Probenecid); then, the cells were incubated at 37 °C with an atmosphere of 5% CO2 for 30 min (protected from light). The compound E at doses of 0–200 μM was administrated in HBS solution. The measurement was performed at wavelengths 490 nm (excitation) 535 nm (emission) in fluorimetry (Spectramax M5, BioTek, VT, USA.

## NS(=O)(=O)c1ccc(CCNCc2cc(Br)ccc2O)cc1 [Compound E, 4-(2-((5-bromo-2-hydroxybenzyl)amino)ethyl) benzenesulphonamide]
  Intracellular pHi level: decreased intracellular pHi level after the dose of 25 µM in a dose-dependent manner
